{"source": "patent US8822754B2", "about": "“Ecdysone receptor-based inducible gene expression system” (Intrexon Corporation, priority 2000, dated 2014)", "test_system": "GAL4RXR + VP16CfEcR", "experiment": "Transactivation of reporter genes through switch 1.3 in 3T3 cells", "description": "In various cellular backgrounds, including mammalian cells, insect ecdysone receptor (EcR) heterodimerizes with retinoid X receptor (RXR) and, upon binding of ligand, transactivates genes under the control of ecdysone response elements. Applicants constructed several EcR-based gene expression cassettes based on the spruce budworm Choristoneura fumiferana EcR (“CfEcR”; full length polynucleotide and amino acid sequences are set forth in SEQ ID NO: 49 and SEQ ID NO: 50, respectively), C. fumiferana ultraspiracle (“CfUSP”; full length polynucleotide and amino acid sequences are set forth in SEQ ID NO: 51 and SEQ ID NO: 52, respectively), and mouse Mus musculus RXRα (MmRXRα; full length polynucleotide and amino acid sequences are set forth in SEQ ID NO: 53 and SEQ ID NO: 54, respectively). The prepared receptor constructs comprise a ligand binding domain of EcR and of RXR or of USP; a DNA binding domain of GAL4 or of EcR; and an activation domain of VP16. The reporter constructs include a reporter gene, luciferase or LacZ, operably linked to a synthetic promoter construct that comprises either GAL4 or EcR/USP binding sites (response elements). Various combinations of these receptor and reporter constructs were cotransfected into CHO, NIH3T3, CV1 and 293 cells. […] Reporter gene expression activities were assayed at 24 hr or 48 hr after ligand addition.\nMmRXRDEF (SEQ ID NO: 22) was fused to a GAL4DNABD (SEQ ID NO: 41) and CfEcRCDEF (SEQ ID NO: 1) was fused to a VP16AD (SEQ ED NO: 45).\nThe same procedures described for CHO cells were followed for 3T3 cells as well with two modifications. The cells were plated when they reached 50% confluency. 125,000 or 50,000 or 25,000 cells were plated per well of 6- or 12- or 24-well plates respectively. The GAl4EcR/VP16RXR and reporter vector DNAs were transfected into NIH3T3 cells, the transfected cells were grown in medium containing PonA, MurA, N-(2-ethyl-3-methoxybenzoyl)-N′-(3,5-dimethylbenzoyl)-N′-t-butylhydrazine, or N-(3,4-(1,2-ethylenedioxy)-2-methylbenzoyl)-N′-(3,5-dimethylbenzoyl)-N′-tert-butylhydrazine for 48 hr. The ligand treatments were performed as described in the CHO cell section above.\nCells were harvested 24-48 hr after adding ligands. 125, 250, or 500 μl of passive lysis buffer (part of Dual-luciferase™ reporter assay system from Promega Corporation) were added to each well of 24- or 12- or […] respectively. The plates were placed on a rotary shaker for 15 min. Twenty μl of lysate was assayed. Luciferase activity was measured using Dual-luciferase™ reporter assay system from Promega Corporation following the manufacturer's instructions. β-Galactosidase was measured using Galacto-Star™ assay kit from TROPIX following the manufacturer's instructions. All luciferase and β-galactosidase activities were normalized using Renilla luciferase as a standard. Fold activities were calculated by dividing normalized relative light units (“RLU”) in ligand treated cells with normalized RLU in DMSO treated cells (untreated control).", "data": [{"smiles": "CCc1c(OC)cccc1C(=O)NN(C(=O)c1cc(C)cc(C)c1)C(C)(C)C", "note": "[N-(2-ethyl-3-methoxybenzoyl)-N′-(3,5-dimethylbenzoyl)-N′-tert-butylhydrazine]", "values": [{"measurement": "Mean Fold Induction at 1.0 μM Concentration", "setting": "GAL4MmRXRDEF/VP16CfEcRCDEF (switch 1.3), 1.0 μM ligand", "value": 71, "unit": "fold"}, {"measurement": "Mean Fold Activation Through N-(2-ethyl-3-methoxybenzoyl)-N′-(3,5-dimethylbenzoyl)-N′-t-butylhydrazine", "setting": "switch 1.3 GAL4RXR + VP16CfEcR, pGAL4RELuc", "value": 47, "unit": "fold"}]}]}
